Tests used:
[1] = test system: Bel-7402 cells; experiment: MTT antiproliferative assay, Bel-7402; assay type: cell-based, human
Description: [The source words this procedure for another cell line and reports this cell line under the same test.] (§1) Cytotoxicity assay in vitro was employed by the MTT assay following the methodology described previously, which was performed in flat-bottomed 96-well plates. In short, exponentially growing MGC-803 cells at the log phase were added to each well at a density of 5 × 10^3 per well, then treated with serial dilutions of the compounds in three replicates at various concentrations (0.039–40 µg/mL). After 72 h, 20 µL of MTT solution (5 mg/mL) per well was added to each cultured medium. Then, DMSO was added to each well (150 µL/well). After 10 min at room temperature, the absorbance (OD) was read on a microplate reader at the wavelength of 490 nm (BIO-RAD Instruments Inc. 550, Hercules, CA, USA). In these experiments, taxol was used as the positive reference with the concentration of 10 µg/mL.

[2] = test system: L-02 normal liver cells; experiment: MTT antiproliferative assay, L-02; assay type: cell-based
Description: [The source words this procedure for another cell line and reports this cell line under the same test.] as §1

[3] = test system: K562 cells; experiment: MTT antiproliferative assay, K562; assay type: cell-based, human
Description: [The source words this procedure for another cell line and reports this cell line under the same test.] as §1

[4] = test system: MGC-803 cells; experiment: MTT antiproliferative assay, MGC-803; assay type: cell-based, human
Description: as §1

[5] = test system: CaEs-17 cells; experiment: MTT antiproliferative assay, CaEs-17; assay type: cell-based, human
Description: [The source words this procedure for another cell line and reports this cell line under the same test.] as §1

[6] = test system: Bel-7402 cells; experiment: Cell cycle study by PI flow cytometry; assay type: cell-based, human; settings: for G2 phase cells: control 20.72%; for cells at the S phase: control 34.65%
Description: Progression through the cell cycle was assessed by flow cytometry DNA determination with PI. Bel-7402 cells were plated in 6-well plates (5.0 × 10^3 cells/well) and incubated at 37 °C for 24 h. Exponentially growing cells were then incubated with tested compound at a certain concentration in triplicate. Untreated cells (control) or cells treated with the solvent (DMSO) of the compound were included. After 48 h treatment, cells were centrifuged and fixed in 70% ethanol at 4 °C overnight and subsequently resuspended in PBS containing 100 μL RNase A and 400 μL PI. Cellular DNA content, for cell cycle distribution analysis, was measured using a flow cytometer (FACS Calibur Becton-Dickinson, Franklin Lake, NJ, USA).
Figure 4 Influence of the cell cycle arrest of S phase by 10f in Bel-7402 cells: Bel-7402 cells were incubated with the indicated concentrations of 10f for 24 h and the cells were stained with propidium iodide (PI). Cellular DNA content, for cell cycle distribution analysis, was measured using a flow cytometer. The diagrams show the distribution of the cells according to their DNA content. The inserts give the percentages of cells in different cell cycle phases. TEXT PRINTED IN THE PICTURE: Control group: G1: 44.64%; S: 34.65%; G2: 20.72% | no label printed: G1: 42.41% (1 μM); S: 40.27% (1 μM); G2: 17.32% (1 μM); G1: 43.10% (1.5 μM); S: 48.11% (1.5 μM); G2: 8.79% (1.5 μM); G1: 40.63% (2 μM); S: 53.34% (2 μM); G2: 6.02% (2 μM) DOUBTS OF THE COPYIST ABOUT THIS PICTURE: The picture prints no label for the treated substance, only the concentrations 1 μM, 1.5 μM and 2 μM, so the substance is left blank and the concentrations are given as conditions. / Control group is an untreated reference, not a substance. It is listed because the picture prints its values under that label.

[7] = test system: Bel-7402 cells; experiment: Annexin V-FITC/PI apoptosis assay; assay type: cell-based, human; settings: 24 h, control 8.27%
Description: The Bel-7402 cells were seeded in 6-well plates to grow overnight, and then treated with or without 10f at indicated concentrations in triplicate for 24 h. Cells were then washed twice in PBS and resuspended in annexin V binding buffer. Annexin V-FITC was then added and the mixture was incubated for 15 min under dark conditions at 25 °C. PI was added just prior to acquisition. Apoptosis was analyzed using annexin V and PI double-staining by flow cytometry according to the manufacturer’s instructions in order to detect apoptotic cells.
Figure 5 Apoptosis in Bel-7402 cells by treatment with 10f: Bel-7402 cells were incubated with different concentrations of 10f for 24 h and the cells were stained with annexin V-FITC and PI, followed by flow cytometry analysis. TEXT PRINTED IN THE PICTURE: Control: 2.67%; 2.37%; 89.06%; 5.90% | no label printed: 2.07% (1.0 μM); 4.15% (1.0 μM); 74.53% (1.0 μM); 19.26% (1.0 μM); 5.69% (1.5 μM); 15.20% (1.5 μM); 55.99% (1.5 μM); 23.12% (1.5 μM); 3.33% (2.0 μM); 26.65% (2.0 μM); 37.87% (2.0 μM); 32.15% (2.0 μM) DOUBTS OF THE COPYIST ABOUT THIS PICTURE: The picture prints no compound label for the treated plots, only the concentrations 1.0 μM, 1.5 μM and 2.0 μM, so the substance is left empty. / The picture prints no measure or quadrant name for the percentages. Each plot's values are given in the order upper left, upper right, lower left, lower right.

[8] = test system: Bel-7402 cells; experiment: Mitochondrial membrane potential assay (JC-1); assay type: cell-based, human; settings: 48 h, control 3.28%
Description: […] The percentage of cells with healthy or collapsed mitochondrial membrane potentials was monitored by flow cytometry analysis.
Figure 6 Effect of 10f on the mitochondrial membrane potentials of Bel-7402 cells: Bel-7402 cells were incubated with the indicated concentrations of 10f for 48 h prior to staining with JC-1. […] In each plot the first value is in the upper right quadrant and the second in the lower right quadrant.

[9] = test system: apoptosis-related proteins in Bel-7402 cells; experiment: Western blot of apoptosis-related proteins; assay type: cell-based, human; settings: 10f 1.0, 1.5 and 2.0 μM, 48 h, concentration-dependent
Description: Bel-7402 cells were incubated in triplicate with different doses (1.0, 1.5 and 2.0 μM) of 10f for 48 h. After the protein concentrations were determined, individual cell lysates were separated by sodium dodecyl sulfate polyacrylamide gel electrophoresis (10% gel, SDS-PAGE) and transferred onto nitrocellulose membranes. After being blocked with 5% fat-free milk, the target proteins in the membranes were probed with monoclonal anti-Bax (KGA714), anti-Bcl2 (KGA715), anti-caspase 3 (KGA717), anti-caspase 9 (KGA720), anti-cyto C (KGA723), and anti-β-actin antibodies (KGA731, KeyGEN Biotech, Nanjing, China), respectively. The relative levels of each signaling event to control β-actin were determined by densimetric scanning.
Figure 7 Western blotting of 10f on the expression of apoptosis-related proteins in Bel-7402 cells. 1: negative control; 2: 2.0 μM; 3: 1.5 μM; 4: 1.0 μM.

C=C1C(=O)C23C(=O)OC4CCC(C)(C)C5C(=O)OCC45C2CCC1C3OC(=O)c1ccccc1C(=O)OCCCOc1no[n+]([O-])c1S(=O)(=O)c1ccccc1 (stereo not shown) [Compound 10f]
IC50 ([1]; Homo sapiens, Bel-7402, MTT, 72 h, mean ± S.D. of three experiments): 810 ± 60 nM | fold stronger than 1, Bel-7402 ([1]; IC50 compared with 1): 8.2 fold | fold stronger than 9, Bel-7402 ([1]; IC50 compared with 9): 18.7 fold | IC50 ([2]; MTT, 72 h, mean ± S.D. of three experiments, read-out: antiproliferative activity IC50, L-02): 29900 ± 1400 nM | SI (selectivity index) ([2]; selectivity between tumor and normal liver cells): 36.9 | IC50 ([3]; Homo sapiens, K562, MTT, 72 h, mean ± S.D. of three experiments): 1730 ± 40 nM | fold stronger than 1, K562 ([3]; IC50 compared with 1): 1.8 fold | IC50 ([4]; Homo sapiens, MGC-803, MTT, 72 h, mean ± S.D. of three experiments): 1180 ± 100 nM | fold stronger than 1, MGC-803 ([4]; IC50 compared with 1): 3.8 fold | fold stronger than 9, MGC-803 ([4]; IC50 compared with 9): 3.9 fold | IC50 ([5]; Homo sapiens, CaEs17, MTT, 72 h, mean ± S.D. of three experiments): 3770 ± 300 nM | fold stronger than 1, CaEs-17 ([5]; IC50 compared with 1): 1.9 fold | fold stronger than 9, CaEs-17 ([5]; IC50 compared with 9): 5.3 fold | G2 phase cells ([6]; 10f 1.0 μM): 17.32% | cells at the S phase ([6]; 10f 1.0 μM): 40.27% | G2 phase cells ([6]; 10f 1.5 μM): 8.79% | cells at the S phase ([6]; 10f 1.5 μM): 48.11% | G2 phase cells ([6]; 10f 2.0 μM): 6.02% | cells at the S phase ([6]; 10f 2.0 μM): 53.34% | apoptotic cell rates (early and late) ([7]; 10f 1.0 μM): 23.41% | apoptotic cell rates (early and late) ([7]; 10f 1.5 μM): 38.32% | apoptotic cell rates (early and late) ([7]; 10f 2.0 μM): 58.80% | cells with collapsed mitochondrial membrane potentials ([8]; 10f 0.5 μM): 17.76% | cells with collapsed mitochondrial membrane potentials ([8]; 10f 1.5 μM): 33.44% | cells with collapsed mitochondrial membrane potentials ([8]; 10f 2.0 μM): 47.63% | anti-apoptotic Bcl-2 expression [9]: downregulation | expression of proapoptotic caspase-3, -8, -9, Bax, FAS, and cytochrome c [9]: upregulation | melting point: 151 to 154 °C
